# From patent publication US8548786B2, “Neuronal avalanche assay” (priority 2005, dated 2013)
# Key:
# [1] = system: acute somatosensory cortex slices; experiment: Neuronal avalanche induction in acute somatosensory cortex slices; format: cell-based, rat; conditions: 3 μM SKF38393 + 3 μM NMDA
# [2] = system: acute slices of rat medial prefrontal cortex (mPFC); experiment: Neuronal avalanche (NAS) assay, microelectrode array LFP recording in acute mPFC slices;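 also: 60-electrode array recordings, low-pass filtered at 200 Hz and sampled at 1 kHz, nLFPs detected below −3 SD of electrode noise, avalanches as runs of active bins between silent bins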
# Description: Continuous extracellular signals v(t) can be recorded between 0.1 Hz and 3000 Hz, low-pass filtered at 200 Hz (Butterfly-filter, Multichannel Systems), digitised at a rate of 1 kHz (Δt=1 ms) and stored. For each electrode k (k=[1, nelec], nelec=60), the electrode noise of v(t) can be estimated by calculating the mean and standard deviation (SD) of v(t) from the total duration of the recording, Ttot, which can range, for example, between 40-60 min. […] Negative LFP peaks (nLFPs) at electrode k can be detected by negative threshold crossing at −3 SD of electrode noise and can be characterized by the time and absolute amplitude of the negative LFP peak, A^k(ti), before v(t) returned to threshold. More precisely, at a given temporal resolution Δt, nLFPs at electrode k can be represented by a vector of length nmax, where nmax is an integer value for which Ttot=nmax·Δt. This vector can contain zeros, except for positions ti=i·Δt, iε[1, . . . , nmax,] with values A^k(ti) in μV.
# A neuronal avalanche is a sequence of consecutive time bins of width Δt with at least one nLFP, which is preceded and terminated by at least one time bin with no activity (FIG. 3A). The absence of activity for a period of Δt thus indicates the end of an avalanche. If the decision of whether an avalanche has ended is made too early (Δt too short), avalanches will be terminated prematurely; if the Δt chosen is too long, avalanches will be falsely concatenated. If avalanches did simply propagate like a wave, an approximation for Δt (Δtavg) could be obtained by averaging the time between one nLFP at one electrode and the next nLFP at neighbouring electrodes only. Because nLFPs in avalanches occur in irregular patterns across electrodes on the array, a pair wise approximation can be used in order to assess the average time that is required for nLFPs to propagate between electrodes.
# In order to calculate Δtavg, the distribution of time intervals T for successive nLFPs on the array can be obtained. Starting with the first nLFP, e.g. A^k(ti) on electrode k at time ti, the next occurrence of an nLFP on the array can be searched for, e.g. A^l(tj) on electrode l at time tj, and calculated the time interval Tm-Δt^k,l, where m=(tj−ti)/Δt. This process can be repeated for all occurrences of nLFPs on electrode k and for all electrodes. The resulting values can be combined into one density distribution P(TmΔt), which captures how often successive nLFPs occurred with a particular delay m·Δt on the array irrespective of their spatial location. Consequently, the average value of T provides an approximation for Δtavg, the average time to wait before making a decision whether an nLFP propagated on the array. However, this interval distribution is highly skewed, particularly when one compares the last nLFP with the first nLFP in successive avalanches that are separated by long times. In order to exclude time intervals from successive nLFPs that are barely correlated, a cut-off time τmax can be calculated for which the average crosscorrelation function (ccf) for pair wise electrode comparisons Rccf(τ) had decayed to negligible values. The ccf between electrodes k, l (Rccf^k,l(τ)) can be calculated as
# Because the exemplary maximal sampling rate was 1 kHz, the actual Δt^avg to calculate avalanches can be taken as the nearest multiple of Δt=1 ms. In short, after Δtavg was calculated for a particular network and experimental condition, the extracellular signals v(t) can be re-sampled at the new temporal resolution of Δtavg. Time and amplitude of nLFP peaks can be extracted as A^k(ti), where ti=i·Δtavg, iε[1, n′max] and Ttot=n′max·Δtavg. Avalanches can be determined on the downsampled data set at bin width Δtavg.
# Avalanche sizes can be calculated in two different ways (see also FIG. 3A).
smiles,measurement,setting,value
Cl.Oc1cc2c(cc1O)C(c1ccccc1)CNCC2 (racemic) [SKF38393],avalanche induction and layer localisation,[1],induced neuronal avalanches primarily in superficial layers
same,average nLFP peak amplitude,[2]; 3 μM SKF38393 + 3 μM NMDA,6.62±0.01 mV
same,Δtavg,[2]; 3 μM SKF38393 + 3 μM NMDA,3.3±0.2
same,total activity at slope α ~−1.5 compared to dopamine,"[2]; 3 μM SKF38393 + 3 μM NMDA vs 30 μM dopamine, p=0.007",significantly reduced level of total activity compared to dopamine
same,slope αLFP after rescue by added NMDA,"[2]; 3 μM SKF38393 alone first, then 3 μM NMDA added",−1.55±0.07
same,induction of nLFPs or avalanches,"[2]; 3 μM SKF38393 alone, without NMDA",did not induce nLFPs or avalanches
same,slope α of avalanche size distribution,"[2]; SKF38393 higher or lower than 3 μM (0.3-300 μM range), + 3 μM NMDA",< −1.5
